Assay results reported in US5373000A, “7Beta-(thiadiazolyl)-2-iminoacetamido-3cephem compounds” (Eisai Co., Ltd., priority 1985, dated 1994).
Values after ≈ are worked out from the molar mass of the structure shown.

Experiments:
Escher. coli NIHJ = assay: Antibacterial activities, MIC; assay type: cell-based; conditions: Escherichia coli, read-out: MIC
Kleb Pneumoniae EK-6 = assay: Antibacterial activities, MIC; assay type: cell-based; conditions: read-out: MIC
Ser. marcescens ES-75 = assay: Antibacterial activities, MIC; assay type: cell-based; conditions: Serratia marcescens, ES75, read-out: MIC
in vivo = conditions: mouse, iv
Staph. aureus 209-P = assay: Antibacterial activities, MIC; assay type: cell-based; conditions: Staphylococcus aureus, read-out: MIC
Morg. morganii EP-14 = assay: Antibacterial activities, MIC; assay type: cell-based; conditions: Morganella morganii, EP14, Morg. morganii EP-14; read-out: MIC
Pseud. aeruginosa EP-01 = assay: Antibacterial activities, MIC; assay type: cell-based; conditions: Pseudomonas aeruginosa, EP01, Pseud. aeruginosa EP-01; read-out: MIC

Compound | MIC (Escher. coli NIHJ) | MIC (Kleb Pneumoniae EK-6) | MIC (Ser. marcescens ES-75) | LD50 (in vivo) | MIC (Staph. aureus 209-P) | MIC (Morg. morganii EP-14) | MIC (Pseud. aeruginosa EP-01)
CO/N=C(\C(=O)N[C@@H]1C(=O)N2C(C(=O)[O-])=C(/C=C/C[N+](C)(C)CC(N)=O)CS[C@H]12)c1nsc(N)n1 [Example 1, 7β-[2-(5-Amino-1,2,4-thiadiazol-3-yl)-(Z)-2-methoxyiminoacetamido]-3-[(E)-3-(carbamoylmethyldimethylammonio)-1-propen-1-yl)-3-cephem-4-carboxylate] | 0.05 µg/mL (≈ 0.0953 µM) | 0.05 µg/mL (≈ 0.0953 µM) | 0.1 µg/mL (≈ 0.191 µM) | ≥ 3000 mg/kg | 0.4 µg/mL (≈ 0.763 µM) | 0.05 µg/mL (≈ 0.0953 µM) | 0.8 µg/mL (≈ 1.53 µM)
CO/N=C(\C(=O)N[C@@H]1C(=O)N2C(C(=O)[O-])=C(/C=C/C[N+](C)(C)Cc3nnco3)CS[C@H]12)c1nsc(N)n1 [Example 20, 7β-[2-(5-Amino-1,2,4-thiadiazol-3-yl)-(Z)-2-methoxyiminoacetamido]-3-[(E)-3-[(1,3,4-oxadiazol-2-yl)methyldimethylammonio]-1-propen-1-yl]-3-cephem-4-carboxylate] | ≤ 0.025 µg/mL | ≤ 0.025 µg/mL | 0.1 µg/mL (≈ 0.182 µM) | ≥ 3000 mg/kg | 0.4 µg/mL (≈ 0.728 µM) | 0.05 µg/mL (≈ 0.091 µM) | 0.8 µg/mL (≈ 1.46 µM)
CO/N=C(\C(=O)N[C@@H]1C(=O)N2C(C(=O)[O-])=C(/C=C/C[N+]3(C)CCN(C=N)CC3)CS[C@H]12)c1nsc(N)n1 [Example 28, 7β-[2-(5-Amino-1,2,4-thiadiazol-3-yl)-(Z)-2-methoxyiminoacetamido]-3-[(E)-3-(1-methyl-4-formimidoyl-1-piperazinio)-1-propen-1-yl]-3-cephem-4-carboxylate] | 0.05 µg/mL (≈ 0.091 µM) | 0.1 µg/mL (≈ 0.182 µM) | 0.2 µg/mL (≈ 0.364 µM) | – | 0.4 µg/mL (≈ 0.728 µM) | 0.1 µg/mL (≈ 0.182 µM) | 1.56 µg/mL (≈ 2.84 µM)
CO/N=C(\C(=O)N[C@@H]1C(=O)N2C(C(=O)[O-])=C(/C=C/C[N+]3(C)CCN(C(N)=O)CC3)CS[C@H]12)c1nsc(N)n1 [Example 29, 7β-[2-(5-Amino-1,2,4-thiadiazol-3-yl)-(Z)-2-methoxyiminoacetamido]-3-[(E)-3-(1-methyl-4-carbamoyl-1-piperazinio)-1-propen-1-yl]-3-cephem-4-carboxylate] | 0.05 µg/mL (≈ 0.0884 µM) | 0.05 µg/mL (≈ 0.0884 µM) | 0.1 µg/mL (≈ 0.177 µM) | – | 0.4 µg/mL (≈ 0.707 µM) | 0.05 µg/mL (≈ 0.0884 µM) | 1.56 µg/mL (≈ 2.76 µM)
CO/N=C(\C(=O)N[C@@H]1C(=O)N2C(C(=O)[O-])=C(/C=C/C[N+]3(C)CCS(=O)(=O)CC3)CS[C@H]12)c1nsc(N)n1 [Example 31, 7β-[2-(5-Amino-1,2,4-thiadiazol-3-yl)-(Z)-2-methoxyiminoacetamido]-3-[(E)-3-(1,1-dioxo-4-methyl-4-thiomorpholinio)-1-propen-1-yl]-3-cephem-4-carboxylate] | 0.05 µg/mL (≈ 0.0875 µM) | ≤ 0.025 µg/mL | 0.1 µg/mL (≈ 0.175 µM) | – | 0.4 µg/mL (≈ 0.7 µM) | 0.05 µg/mL (≈ 0.0875 µM) | 0.8 µg/mL (≈ 1.4 µM)
CO/N=C(\C(=O)N[C@@H]1C(=O)N2C(C(=O)[O-])=C(/C=C/C[N+]34CCN(CC3)CC4)CS[C@H]12)c1nsc(N)n1 [Example 32, 7β-[2-(5-Amino-1,2,4-thiadiazol-3-yl)-(Z)-2-methoxyiminoacetamido]-3-[(E)-3-(1,4-diazabicyclo[2,2,2]octan-1-io)-1-propen-1-yl]-3-cephem-4-carboxylate] | ≤ 0.025 µg/mL | ≤ 0.025 µg/mL | 0.1 µg/mL (≈ 0.187 µM) | – | 0.2 µg/mL (≈ 0.374 µM) | 0.05 µg/mL (≈ 0.0935 µM) | 0.8 µg/mL (≈ 1.5 µM)
CO/N=C(\C(=O)N[C@@H]1C(=O)N2C(C(=O)[O-])=C(/C=C/C[N+]3(C)CCN(C)CC3)CS[C@H]12)c1nsc(N)n1 [Example 33, 7β-[2-(5-Amino-1,2,4-thiadiazol-3-yl)-(Z)-2-methoxyiminoacetamido]-3-[(E)-3-(1,4-dimethyl-1-piperazinio)-1-propen-1-yl]-3-cephem-4-carboxylate] | ≤ 0.025 µg/mL | ≤ 0.025 µg/mL | 0.05 µg/mL (≈ 0.0932 µM) | ≥ 3000 mg/kg | 0.2 µg/mL (≈ 0.373 µM) | ≤ 0.025 µg/mL | 1.56 µg/mL (≈ 2.91 µM)
CO/N=C(\C(=O)N[C@@H]1C(=O)N2C(C(=O)[O-])=C(/C=C/C[N+]3(C)CC=C(C(N)=O)CC3)CS[C@H]12)c1nsc(N)n1 (stereo partly drawn) [Example 34, 7β-[2-(5-Amino-1,2,4-thiadiazol-3-yl)-(Z)-2-methoxyiminoacetamido]-3-[(E)-3-(1-methyl-4-carbamoyl-1,2,3,6-tetrahydropyridinio)-1-propen-1-yl]-3-cephem-4-carboxylate] | ≤ 0.025 µg/mL | 0.1 µg/mL (≈ 0.178 µM) | 0.1 µg/mL (≈ 0.178 µM) | – | 0.2 µg/mL (≈ 0.355 µM) | 0.05 µg/mL (≈ 0.0889 µM) | 0.8 µg/mL (≈ 1.42 µM)
CO/N=C(\C(=O)N[C@@H]1C(=O)N2C(C(=O)[O-])=C(/C=C/C[N+](C)(C)CCC(N)=O)CS[C@H]12)c1nsc(N)n1 [Example 35, 7β-[2-(5-Amino-1,2,4-thiadiazol-3-yl)-(Z)-2-methoxyiminoacetamido]-3-[(E)-3-[N,N-dimethyl-N-(2-carbamoylethyl)ammonio]-1-propen-1-yl]-3-cephem-4-carboxylate] | ≤ 0.025 µg/mL | 0.1 µg/mL (≈ 0.186 µM) | 0.05 µg/mL (≈ 0.0928 µM) | – | 0.2 µg/mL (≈ 0.371 µM) | 0.05 µg/mL (≈ 0.0928 µM) | 0.8 µg/mL (≈ 1.49 µM)
